We go through 19 molecules from patent US9062013B2, “Positive allosteric modulators of the α7 nicotinic acetylcholine receptor and uses thereof” (Bionomics Limited, priority 2011, dated 2015).

The subject of one data set is scopolamine treated mice. Briefly: T-maze Continuous Alternation Task (T-CAT), scopolamine-induced cognitive impairment. Type of data set: in vivo. The conditions noted are these: test compounds administered 60 min prior, scopolamine 20 min prior to the T-maze session. The text has this:
Scopolamine is a muscarinic receptor antagonist which is used as a standard/reference drug for inducing cognitive deficits in healthy humans and animals.
The T-maze Continuous Alternation Task (T-CAT) measures spontaneous alternation, which is the innate tendency of mice to alternate free choices in a T-maze over a series of successive runs. This sequential procedure relies on working memory and is sensitive to various pharmacological manipulations affecting memory processes.
The T-maze apparatus is made of gray Plexiglas with a main stem (55 cm long×10 cm wide×25 cm high) and two arms (30 cm long×10 cm wide×25 cm high) positioned at 90 degree angle relative to the main stem. A start box (15 cm long×10 cm wide) is separated from the main stem by a sliding door. Sliding doors are also provided to close specific arms during the forced-choice alternation task.
The experimental protocol consists of one single session, which starts with 1 “forced-choice” trial, followed by 14 “free-choice” trials. In the first “forced-choice” trial, the animal is confined for 5 s in the start arm and then it is released while either the left or right goal arm is blocked by a sliding door. The animal will negotiate the maze, eventually enter the open goal arm, and return to the start position. Immediately after the return to the start position, the left or right goal door is opened and the animal is allowed to choose freely between the left and right goal arm (“free choice” trials). The animal is considered to have entered an arm when it places its four paws in the arm. A session is terminated and the animal is removed from the maze as soon as 14 free-choice trials have been performed or 10 min have elapsed, whichever event occurs first. The percentage of alternation over the 14 free-choice trials is determined for each mouse and is used as an index of working memory performance. This percentage is defined as entry in a different arm of the T-maze over successive visits (i.e., left-right-left-right, etc). Scopolamine administered 20 min prior the initiation of the 1-maze session is used to induce disruption in the spontaneous alternation of mice. Test compounds are administered 60 min prior the start of the T-maze session in order to evaluate their ability to reverse the scopolamine effect.
The apparatus is cleaned between each animal using alcohol (70°). Urine and feces are removed from the maze. During the trials, animal handling and the visibility of the operator are minimized as much as possible.

As to `COc1ccc(Cl)cc1NC(=O)[C@@H]1[C@@H](c2ccc(Cl)cc2)C1(C)C` (relative stereo) [Example 5a, trans-N-(5-Chloro-2-methoxyphenyl)-3-(4-chlorophenyl)-2,2-dimethylcyclopropanecarboxamide], the melting point fell in the range of 162 to 164 °C. In addition, in the data set with scopolamine treated mice, the “improvement relative to the scopolamine treated mice (spontaneous alternation)” value is “significant improvement”.
Regarding `COc1ccc(Cl)cc1NC(=O)[C@@H]1[C@@H](c2ccccc2)C12CCCC2` [Example 6a, trans-N-(5-Chloro-2-methoxyphenyl)-2-phenylspirol[2.4]heptane-1-carboxamide], the melting point was 133 to 135 °C.
`COc1ccc(Cl)cc1NC(=O)[C@@H]1[C@@H](c2ccc(S(N)(=O)=O)cc2)C12CCCC2` (relative stereo) [Example 6b, trans-N-(5-Chloro-2-methoxyphenyl)-2-(4-sulfamoylphenyl)spiro[2.4]heptane-1-carboxamide]: in the data set on scopolamine treated mice, the “improvement relative to the scopolamine treated mice (spontaneous alternation)” value is given as “significant improvement”.
`Cc1cnc(NC(=O)[C@@H]2[C@@H](c3ccccc3)C2(C)C)s1` (relative stereo) [Example 1a, 2,2-Dimethyl-trans-N-(5-methylthiazol-2-yl)-3-phenylcyclopropanecarboxamide] showed a melting point of 132 to 135 °C.
Take `COc1cc(OC)c(NC(=O)[C@@H]2[C@@H](c3ccccc3)C2(C)C)cc1Cl` (relative stereo) [Example 3a, trans-N-(5-Chloro-2,4-dimethoxyphenyl)-2,2-dimethyl-3-phenylcyclopropanecarboxamide]: the melting point lay within 160 to 162 °C.
As for `COc1ccc(Cl)cc1NC(=O)[C@@H]1[C@@H](c2ccc(S(N)(=O)=O)cc2)C1(C)C` (relative stereo) [Example 4b, trans-N-(5-Chloro-2-methoxyphenyl)-2,2-dimethyl-3-(4-sulfamoylphenyl)cyclopropanecarboxamide], the “improvement relative to the scopolamine treated mice (spontaneous alternation)” value with scopolamine treated mice is on record as “significant improvement”.
`COc1ccc(Cl)cc1NC(=O)[C@@H]1[C@@H](c2ccc(Br)cc2)C1(C)C` (relative stereo) [Example 12c, trans-N-(5-Chloro-2-methoxyphenyl)-3-(4-bromophenyl)-2,2-dimethylcyclopropanecarboxamide] yielded a melting point of 170 to 172 °C.
The same measure, in the same setting: then `COc1ccc(NC(=O)[C@@H]2[C@@H](c3ccccc3)C23CCCC3)c(OC)n1` (relative stereo) [Example 8a, trans-N-(2,6-dimethoxypyridin-3-yl)-2-phenylspiro[2.4]heptane-1-carboxamide], with 131 to 133 °C; and `COc1ccc(Cl)cc1NC(=O)[C@@H]1[C@@H](c2ccc3c(c2)OC(F)(F)O3)C1(C)C` (relative stereo) [Example 18d, trans-N-(5-Chloro-2-methoxyphenyl)-3-(2,2-difluoro-benzo[1,3]dioxol-5-yl)-2,2-dimethyl-cyclopropane carboxamide], with 120 to 122 °C; and `COc1ncccc1NC(=O)[C@@H]1[C@@H](c2ccccc2)C1(C)C` (relative stereo) [Example 13a, trans-N-(2-methoxypyridin-3-yl)-2,2-dimethyl-3-phenylcyclopropanecarboxamide], with 152 to 154 °C.
For the molecule `NS(=O)(=O)c1ccc([C@@H]2[C@@H](C(=O)Nc3ccc(C(F)(F)F)cc3)C23CCCC3)cc1` (relative stereo) [Example 9b, trans-2-(4-sulfamoylphenyl)-N-(4-(trifluoromethyl)phenyl)spiro[2.4]heptane-1-carboxamide], the “improvement relative to the scopolamine treated mice (spontaneous alternation)” value in the data set with scopolamine treated mice was “significant improvement”.
In the case of `COc1ccc(Cl)cc1NC(=O)[C@@H]1[C@@H](c2ccccc2)C1(C)C` (relative stereo) [Example 4a, trans-N-(5-Chloro-2-methoxyphenyl)-2,2-dimethyl-3-phenylcyclopropanecarboxamide], the melting point lay in the range of 155 to 157 °C.
Same read-out and setting: the same measure for `O=C(Nc1ccc(C(F)(F)F)cc1)[C@@H]1[C@@H](c2ccccc2)C12CCCC2` (relative stereo) [Example 9a, trans-2-phenyl-N-(4-(trifluoromethyl)phenyl)spiro[2.4]heptane-1-carboxamide]: 171 to 173 °C; for `CC1(C)[C@H](C(=O)Nc2cc(C(F)(F)F)n[nH]2)[C@H]1c1ccccc1` (relative stereo) [Example 2a, 2,2-Dimethyl-trans-3-phenyl-N-(3-(trifluoromethyl)-1H-pyrazol-5-yl)cyclopropanecarboxamide]: 68 to 71 °C; for `COc1ccc(Cl)cc1NC(=O)[C@@H]1[C@@H](c2cccc(C)c2)C1(C)C` (relative stereo) [Example 17a, trans-N-(5-Chloro-2-methoxyphenyl)-2,2-dimethyl-3-m-tolyl-cyclopropanecarboxamide]: 148 to 150 °C.
Consider `CC1(C)[C@H](C(=O)Nc2cc(C(F)(F)F)n[nH]2)[C@H]1c1ccc(S(N)(=O)=O)cc1` (relative stereo) [Example 2b, 2,2-Dimethyl-trans-3-(4-sulfamoylphenyl)-N-(3-(trifluoromethyl)-1H-pyrazol-5-yl)cyclopropanecarboxamide], for which the “improvement relative to the scopolamine treated mice (spontaneous alternation)” value in the data set on scopolamine treated mice is “significant improvement”.
As for `CC1(C)[C@H](C(=O)Nc2ccncc2)[C@H]1c1ccc(S(N)(=O)=O)cc1` (relative stereo) [Example 10b, 2,2-Dimethyl-trans-N-(pyridin-4-yl)-3-(4-sulfamoylphenyl)cyclopropanecarboxamide], the “improvement relative to the scopolamine treated mice (spontaneous alternation)” value with scopolamine treated mice is reported as “significant improvement”.
The molecule `O=C(Nc1ccc(C(F)(F)F)cc1Cl)[C@@H]1[C@@H](c2ccccc2)C12CCCC2` (relative stereo) [Example 15a, trans-2-phenyl-N-[2-chloro-4-(trifluoromethyl)phenyl]spiro[2.4]heptane-1-carboxamide] had a melting point of 131 to 133 °C.
`Cc1cccc([C@@H]2[C@@H](C(=O)Nc3ccc(F)c(F)c3)C2(C)C)c1` (relative stereo) [Example 16d, trans-N-(3,4-Difluoro-phenyl)-2,2-dimethyl-3-m-tolyl-cyclopropanecarboxamide]: the melting point lay within 110 to 113 °C.
